Measurements as given in PubChem BioAssay AID1963437 (Molecular Pharmacology Branch, DTP, NCI, 2024).

Tested on: OVCAR-8 complex spheroid, growth inhibition
Assay: Anticancer human tumor OVCAR-8 cell line growth inhibition [Asc];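 further: spheroids exposed to agents for 7 days before readout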;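 on viability, T/C: percent viability relative to DMSO vehicle wells taken as 100%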
Conditions: for IC50: curve of first compound; for viability, T/C: stronger effect = lower value
Method: Multicellular complex tumor spheroid response to apoptosis pathway targeting inhibitors Alrizomadlin, Pelcitoclax, and Dasminapant in combination with a variety of drugs and investigational agents in selected tumor cell lines
The MDM2 inhibitor alrizomadlin, the Bcl-2/Bcl-xL inhibitor pelcitoclax, and the IAPs inhibitor dasminapant were evaluated both individually and in combination with standard of care and investigational anticancer small molecules within a complex spheroid model of solid tumors. . Complex spheroids include a stromal component modeled by human endothelial cells (HUVEC) and fibroblasts modeled by human mesenchymal stem cells (MSCs). The concentration ranges selected for each drug and investigational agent were based upon clinically achievable concentrations if the clinical Cmax of the agent was known.
Compounds. The drugs and investigational agents: alrizomadlin (APG-115; NSC831270), pelcitoclax (APG-1252; NSC835773), dasminapant (APG-1387;NSC834197), TAK-243 (NSC785004), copanlisib (NSC809693), olaparib (NSC753686), talazoparib (NSC767125), cobimetinib (NSC 768068), eltanexor (KPT-8602, NSC 794443), abemaciclib (NSC 768073), sotorasib (NSC818433), adagrasib (NSC 831453), MRTX-1133 (NSC 836407), Iadademestat (ORY1001, NSC 806812), and RMC-4630 (NSC839698), were obtained from the NCI Developmental Therapeutics Program Chemical Repository. The FDA-approved anticancer drug set is available from the Developmental Therapeutics Program at https://dtp.cancer.gov/organization/dscb/obtaining/available plates.htm. […] The stock solutions were prepared in dimethyl sulfoxide (DMSO, Sigma-Aldrich, St. Louis, MO, cat. D2650) at 800-fold the tested concentration and stored at -70 degrees C prior to their use. All drugs and investigational agents were tested over a range starting from a high concentration at or near the clinical Cmax and decreasing in half-log increments. If the clinical Cmax for an agent had not been determined, the highest concentration tested was 10 microM.
The patient-derived cancer (PDC) cell lines include five colon adenocarcinomas: 186277-243-T-J2-PDC, 616215-338-R-J1-PDC, 439559-082-T-J2-PDC, 463943-066-T-J2-PDC, and 519858-162-T-J1-PDC; three pancreatic carcinomas: 323965-272-R-J2-PDC, 521955-158-R6-J3-PDC, and 521955-158-R2-J5-PDC; two uterine sarcomas: 327498-152-R-J2-PDC and 993429-296-R-J1-PDC; two rhabdomyosarcomas: 755483-174-R-J1-PDC and 772245-204-R-J1-PDC; two soft tissue sarcomas: 126254-015-R-J1-PDC and 494315-158-R-J1-PDC; two malignant fibrous histiocytomas: 317291-083-R-J1-PDC and 596521-263-R-J1-PDC; two breast carcinomas: 171881-019-R-J1-PDC and 885512-296-R-J2-PDC; and one ovarian carcinoma: 6556581-035-R-J-PDC were obtained from the NCI PDMR, (https://pdmr.cancer.gov). The established cell lines HSSY-2 synovial sarcoma (RRID:CVCL 8719), SYO-1 synovial sarcoma (RRID:CVCL_7146), MPNST malignant peripheral neural sheath tumor were obtained from the Sloan Kettering Institute. The following established cell lines were purchased from the American Type Culture Collection (ATCC, Manassas, VA), Sor the received from the NCI repository:, PANC-1 pancreatic carcinoma (CRL-1469, RRID:CVCL_0480), OVCAR-5 ovarian carcinoma (RRID:CVCL_1628), OVCAR-8 ovarian carcinoma (RRID:CVCL_1629), , MCF-7 breast carcinoma (CRL-12584, RRID:CVCL_0031), MDA-MB-231 breast carcinoma (CRL-12532, RRID:CVCL_0062), NCI-H1876 small cell lung carcinoma (CRL-5902, RRID:CVCL_1503), NCI-H510A small cell lung carcinoma (HTB-184, RRID:CVCL_1565), NCI-H1417 (CRL-5869, RRID:CVCL_1469), and NCI-H196 small cell lung carcinoma (CRL-5823, RRID:CVCL_1509). Dr. Peter Houghton (Greehey Children's Cancer Research Institute, University of Texas Health Science Center, San Antonio, TX) provided Rh-18 rhabdomyosarcoma (RRID:CVCL_1659). Pooled donor human umbilical vein endothelial cells (HUVEC, Lonza, cat. CC-2519) and human mesenchymal stem cells (hMSC, Lonza, cat. PT-2501) were purchased from Lonza (Walkersville, MD).
Cell Culture. […]

[1] = second compound 0.0316 µM, first compound 0.0316 µM
[2] = second compound 0.0316 µM, first compound 0.1 µM
[3] = second compound 0.0316 µM, first compound 0.316 µM
[4] = second compound 0.0316 µM, first compound 1 µM
[5] = second compound 0.1 µM, first compound 0.0316 µM
[6] = second compound 0.1 µM, first compound 0.1 µM
[7] = second compound 0.1 µM, first compound 0.316 µM
[8] = second compound 0.1 µM, first compound 1 µM
[9] = second compound 0.316 µM, first compound 0.0316 µM
[10] = second compound 0.316 µM, first compound 0.1 µM
[11] = second compound 0.316 µM, first compound 0.316 µM
[12] = second compound 0.316 µM, first compound 1 µM
[13] = second compound 1 µM, first compound 0.0316 µM
[14] = second compound 1 µM, first compound 0.1 µM
[15] = second compound 1 µM, first compound 0.316 µM
[16] = second compound 1 µM, first compound 1 µM
[17] = second compound 3.16 µM, first compound 0.0316 µM
[18] = second compound 3.16 µM, first compound 0.1 µM
[19] = second compound 3.16 µM, first compound 0.316 µM
[20] = second compound 3.16 µM, first compound 1 µM
[21] = second compound 10 µM, first compound 0.0316 µM
[22] = second compound 10 µM, first compound 0.1 µM
[23] = second compound 10 µM, first compound 0.316 µM
[24] = second compound 10 µM, first compound 1 µM

## CNC(C)C(=O)NC1CN(S(=O)(=O)c2cccc(S(=O)(=O)N3CCC4CCC(C(=O)NC(c5ccccc5)c5ccccc5)N4C(=O)C(NC(=O)C(C)NC)C3)c2)CCC2CCC(C(=O)NC(c3ccccc3)c3ccccc3)N2C1=O (centres undefined) + Cc1c(S(C)(=O)=O)c(-c2cc(F)cc(N3CCN(c4ccc(NS(=O)(=O)c5ccc(NC(CCN6CCC(C(=O)OCCCP(=O)(O)O)CC6)CSc6ccccc6)c(S(=O)(=O)C(F)(F)F)c5)cc4)CC3)c2)c(-c2ccc(Cl)cc2)n1C(C)C
Second compound 0.0316 µM
  IC50: > 1 µM
Second compound 0.1 µM
  IC50: > 1 µM
Second compound 0.316 µM
  IC50: > 1 µM
Second compound 1 µM
  IC50: > 1 µM
Second compound 3.16 µM
  IC50: > 1 µM
Second compound 10 µM
  IC50: > 1 µM
Second compound 0.0316 µM, first compound 0.00316 µM
  viability, T/C: 97.5%
Second compound 0.0316 µM, first compound 0.01 µM
  viability, T/C: 94.6%
[1]
  viability, T/C: 88.4%
[2]
  viability, T/C: 90.9%
[3]
  viability, T/C: 67.5%
[4]
  viability, T/C: 57.5%
Second compound 0.1 µM, first compound 0.00316 µM
  viability, T/C: 92.2%
Second compound 0.1 µM, first compound 0.01 µM
  viability, T/C: 84.5%
[5]
  viability, T/C: 80.8%
[6]
  viability, T/C: 76.5%
[7]
  viability, T/C: 64.5%
[8]
  viability, T/C: 59.7%
Second compound 0.316 µM, first compound 0.00316 µM
  viability, T/C: 106%
Second compound 0.316 µM, first compound 0.01 µM
  viability, T/C: 79.2%
[9]
  viability, T/C: 86.8%
[10]
  viability, T/C: 80.3%
[11]
  viability, T/C: 58.9%
[12]
  viability, T/C: 53.1%
Second compound 1 µM, first compound 0.00316 µM
  viability, T/C: 123%
Second compound 1 µM, first compound 0.01 µM
  viability, T/C: 97.1%
[13]
  viability, T/C: 86.8%
[14]
  viability, T/C: 80.6%
[15]
  viability, T/C: 59.4%
[16]
  viability, T/C: 60.1%
Second compound 3.16 µM, first compound 0.00316 µM
  viability, T/C: 91.2%
Second compound 3.16 µM, first compound 0.01 µM
  viability, T/C: 86.8%
[17]
  viability, T/C: 84.7%
[18]
  viability, T/C: 67.3%
[19]
  viability, T/C: 57.5%
[20]
  viability, T/C: 58.2%
Second compound 10 µM, first compound 0.00316 µM
  viability, T/C: 101%
Second compound 10 µM, first compound 0.01 µM
  viability, T/C: 78.2%
[21]
  viability, T/C: 78.9%
[22]
  viability, T/C: 60.2%
[23]
  viability, T/C: 52%
[24]
  viability, T/C: 59.2%

## O=C(c1cc(Cc2n[nH]c(=O)c3ccccc23)ccc1F)N1CCN(C(=O)C2CC2)CC1 + Cc1c(S(C)(=O)=O)c(-c2cc(F)cc(N3CCN(c4ccc(NS(=O)(=O)c5ccc(NC(CCN6CCC(C(=O)OCCCP(=O)(O)O)CC6)CSc6ccccc6)c(S(=O)(=O)C(F)(F)F)c5)cc4)CC3)c2)c(-c2ccc(Cl)cc2)n1C(C)C
Second compound 0.0316 µM
  IC50: > 10 µM
Second compound 0.1 µM
  IC50: > 10 µM
Second compound 0.316 µM
  IC50: > 10 µM
Second compound 1 µM
  IC50: > 10 µM
Second compound 3.16 µM
  IC50: > 10 µM
Second compound 10 µM
  IC50: > 10 µM
[1]
  viability, T/C: 95.1%
[2]
  viability, T/C: 97%
[3]
  viability, T/C: 88.2%
[4]
  viability, T/C: 102%
Second compound 0.0316 µM, first compound 3.16 µM
  viability, T/C: 137%
Second compound 0.0316 µM, first compound 10 µM
  viability, T/C: 114%
[5]
  viability, T/C: 100%
[6]
  viability, T/C: 87.9%
[7]
  viability, T/C: 92.5%
[8]
  viability, T/C: 98.2%
Second compound 0.1 µM, first compound 3.16 µM
  viability, T/C: 115%
Second compound 0.1 µM, first compound 10 µM
  viability, T/C: 137%
[9]
  viability, T/C: 103%
[10]
  viability, T/C: 101%
[11]
  viability, T/C: 105%
[12]
  viability, T/C: 110%
Second compound 0.316 µM, first compound 3.16 µM
  viability, T/C: 161%
Second compound 0.316 µM, first compound 10 µM
  viability, T/C: 130%
[13]
  viability, T/C: 132%
[14]
  viability, T/C: 96.7%
[15]
  viability, T/C: 120%
[16]
  viability, T/C: 120%
Second compound 1 µM, first compound 3.16 µM
  viability, T/C: 152%
Second compound 1 µM, first compound 10 µM
  viability, T/C: 109%
[17]
  viability, T/C: 134%
[18]
  viability, T/C: 106%
[19]
  viability, T/C: 100%
[20]
  viability, T/C: 104%
Second compound 3.16 µM, first compound 3.16 µM
  viability, T/C: 140%
Second compound 3.16 µM, first compound 10 µM
  viability, T/C: 107%
[21]
  viability, T/C: 125%
[22]
  viability, T/C: 107%
[23]
  viability, T/C: 112%
[24]
  viability, T/C: 124%
Second compound 10 µM, first compound 3.16 µM
  viability, T/C: 159%
Second compound 10 µM, first compound 10 µM
  viability, T/C: 98.9%
